One series deals with Plasmodium falciparum. The series can be described thus: Antiplasmodial activity against asexual Plasmodium falciparum 3D7 infected in human erythrocytes assessed as reduction in parasitemia measured after 72 hrs by LDH assay. Conditions: 3D7, Erythrocyte. Format: functional, organism-based.
For series [1], the system named is Trypanosoma brucei rhodesiense. The series can be described thus: Antitrypanosomal activity against Trypanosoma brucei rhodesiense IL-1501 assessed as parasite growth inhibition incubated for 69 hrs by AlamarBlue assay. Format: functional, organism-based. The note with it: IL-1501, 69 h. In general terms: Alamar Blue is a resazurin reagent that responds to reducing activity.

For a further series, the system named is HeLa. The series can be described thus: Cytotoxicity against human HeLa cells assessed as cell growth inhibition at 10 uM measured after 72 hrs by MTT assay. Format: cell-based. Background: Tetrazolium assays rely on reduction of a dye to a coloured formazan, in cell work by metabolically active cells.
The next series deals with HL-60. The series can be described thus: Cytotoxicity against human HL-60 cells assessed as cell growth inhibition at 10 uM measured after 72 hrs by MTT assay. Conditions: hl-60, 72 h. Format: cell-based.

In the case of `O=C1C(O)=C([C@H]2CC[C@H](c3ccc(Cl)cc3)CC2)C(=O)c2ccccc21` [ATOVAQUONE], the IC50 (commonly the concentration that gives 50% inhibition) in the series with Plasmodium falciparum stood at 0.96 nM.
As for `N=C(N)c1ccc(OCCCCCOc2ccc(C(=N)N)cc2)cc1` [PENTAMIDINE], the IC50 in series [1] turned out to be 1 nM.
Consider `CC[C@H](C)[C@H](C(=O)N[C@@H](CCC(N)=O)C(=O)N[C@H](C(=O)N(C)[C@H](Cc1ccccc1)C(=O)N1CCC[C@H]1C(=O)OC)C(C)C)N(C)C(=O)[C@H](CC(C)C)NC(=O)CC[C@@H](C)CCCCNC(=O)CCCc1ccc(O)cc1`, for which the Activity result in the series on HeLa and in the series with HL-60 was “Non-Toxic” each time. The 50% inhibitory concentration (IC50) amounted to 870 nM in the series on Plasmodium falciparum and 4400 nM in series [1].
Consider `CC[C@H](C)[C@H](C(=O)N[C@@H](CCC(N)=O)C(=O)N[C@H](C(=O)N(C)[C@H](Cc1ccccc1)C(=O)N1CCC[C@H]1C(=O)OC)C(C)C)N(C)C(=O)[C@H](CC(C)C)NC(=O)CC[C@H](C)CCCCNC(=O)CCCc1ccc(O)cc1`, for which the Activity result in the series on HeLa and in the series on HL-60 was “Non-Toxic” throughout. The half-inhibitory concentration (IC50) in the series on Plasmodium falciparum worked out at 960 nM; in series [1], 2900 nM.

Values taken from ChEMBL document CHEMBL4813929, “Isolation, Structure Determination, and Total Synthesis of Hoshinoamide C, an Antiparasitic Lipopeptide from the Marine Cyanobacterium Caldora penicillata” (J Nat Prod, 2021).
